Values quoted from earlier work as cited in patent publication US12606918B2, “Production of sanitizing fluid using in situ electrolysis” (APPLIED PHAGE GMBH, priority 2024, dated 2026).
Read-outs that look alike come from different tables or passages of the source.

In the case of `[O-][Cl+2]([O-])O` [chlorate], the “ADI (allowable daily intake)” value (as ClO3^−) is listed as 0.0024 mg/kg BW·day, the “ADI (allowable daily intake)” value (as NaClO3) is listed as 0.003 mg/kg BW·day and the “Arfd (acute reference dose)” value (as NaClO3) is listed as 0.003 mg/kg BW·day.
